{"source": "patent US7718658B2", "about": "(priority 2004, dated 2010)", "origin": "cited, not measured here", "test_system": "neuropathic pain", "details": "in vivo", "data": [{"smiles": "NCC1(CC(=O)O)CCCCC1", "note": "[Gabapentin]", "values": [{"measurement": "share of patients in whom it works", "value": 60, "unit": "%"}]}]}
